Test results from BindingDB's records for PubMed 38746901 (Smith, Gambrell & Russell).

Assay: Inhibition of human recombinant GST tagged NIK incubated for 2 hrs in presence of ATP by alpha screen assay

| Compound | IC50 |
| --- | --- |
| CN1CC[C@@](O)(c2cc(-c3cccc(-c4ccnc(Nc5cnn(C)c5C5CC5)n4)n3)no2)C1=O | < 50 nM |
| CN1CC(F)(F)[C@@](O)(c2cc(-c3cccc(-c4ccnc(Nc5cnn(C)c5)n4)n3)no2)C1=O | < 50 nM |
| CN1CC[C@@](O)(c2nnc(-c3cccc(-c4ccnc(Nc5cnn(C)c5Cl)n4)n3)s2)C1=O | < 50 nM |
| Cc1nscc1Nc1nccc(-c2cccc(-c3cc([C@]4(O)CCN(C)C4=O)on3)n2)n1 | < 50 nM |
| Cc1nocc1Nc1nccc(-c2cccc(-c3cc([C@]4(O)CCN(C)C4=O)on3)n2)n1 | < 50 nM |
| CN1CC[C@@](O)(c2cn(-c3cccc(-c4ccnc(Nc5ccn(C)n5)n4)n3)nn2)C1=O | < 50 nM |
